Results: patent publication US20100143456A1, “MODEL MEMBRANE SYSTEMS” (priority 1999, published 2010)

Tested on: P815 cells
Assay: FACS analysis of hexa-histidine-tagged B7.1 and CD40 engrafted onto P815 cells via incorporated lipid
Format: cell-based, murine
Settings: 0.1 mM lipid 30 min 37° C., then 6His B7.1 and CD40 each ~20 μg/ml, streptavidin-FITC
Procedure: FIG. 2 is the fluorescence profile, as measured by fluorescence-activated cell sorting, of p815 cells engrafted with biotinylated and hexa-histidine-tagged CD40 and B7.1 molecules and then stained with streptavidin-FITC.
Cultured P815 tumor cells were washed twice in PBS to remove proteins from the culture media and suspended to 1×10^7 cells/ml in PBS. The cells were then aliquoted into 96-well V-bottom Seroeluster plates (Costar, Corning, N.Y.) at […] and incubated with 125 μM NTA-DTDA (alone or as a mixture with other lipids as indicated) or 125 μM DMPC (control) in PBS containing 125 μM Zn^2+, for 40 min at 37° C. […] The relative level of NTA-DTDA incorporated was routinely assessed by FACS analysis (see below) after incubating the cells with biotinylated 6His peptide (B-6His) (0.2 μg/ml) for 30 min at 4° C., washing twice with PBS-0.1% v/v BSA, and then staining with streptavidin-FITC. The cells were incubated with streptavidin-FITC (33 μg/ml) in PBS containing 1% v/v BSA (PBS-1% v/v-BSA) for 30 min at 4° C., washed three times with PBS-1% v/v BSA, fixed with 2% v/v paraformaldehyde in PBS, and then analyzed for FITC-fluorescence by FACS. […]
The histograms in FIG. 2 show fluorescence-activated cell sorting (FACS) profiles of murine mastocytoma P815 cells carrying engrafted recombinant hexa-histidine-tagged murine B7.1 and CD40. […]

| SMILES | level of fluorescence after staining with either monoclonal antibody (biotinylated mAb) | fluorescence of P815 cells relative to cells pre-incubated with DMPC (Control) (biotinylated anti-B7.1 or anti-CD40 mAb) |
| --- | --- | --- |
| CCCCCCCCCCCCCC(=O)OC[C@H](COP(=O)([O-])OCC[N+](C)(C)C)OC(=O)CCCCCCCCCCCCC [DMPC, di-myristoyl-phosphatidylcholine] | low level of fluorescence | – |
| CCCCCCCCCCCCCCN(CCCCCCCCCCCCCC)C(=O)CCC(=O)NCCCC[C@@H](C(=O)O)N(CC(=O)O)CC(=O)O [NTA-DTDA, N^α,N^αbis[carboxymethyl]-N^ε[(DTDA)suc]-L lysine] | – | 10-100 fold |
